Reference: publication PMC5706701, “Development of a homogenous high-throughput assay for inositol hexakisphosphate kinase 1 activity” (PLoS ONE, 2017)
Where a name gives a salt, the structure may show the parent alone. Read-outs that look alike come from different tables or passages of the source.

Target: T1, Human IP6K1 (Homo sapiens, UniProt Q92551)
T1 construct: GST (N, cleaved yes); made in house; host or cells: C43 E. coli, pGEX-6P-2
Test: IP6K1 high-throughput screen of the Sigma LOPAC (ADP-Glo Max, single point);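 also: final compound concentration 10µM in 5% DMSO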
Assay type: biochemical

[1] = LOPAC single-point screen, ADP-Glo Max luminescence raw signal per well
[2] = LOPAC single-point screen, Z-score relative to plate average and StDev
[3] = LOPAC single-point screen, ADP-Glo Max raw signal per well
[4] = LOPAC single-point screen, Z-score from raw signal with plate average and StDev
[5] = LOPAC single-point screen, Z-score against plate average and StDev
[6] = Sigma LOPAC single-point screen, ADP-Glo Max raw signal per well
[7] = Sigma LOPAC single-point screen, Z-score from plate average and StDev
[8] = LOPAC single-point screen, Z-score from plate average and StDev

T1 sequence (Q92551 whole entry): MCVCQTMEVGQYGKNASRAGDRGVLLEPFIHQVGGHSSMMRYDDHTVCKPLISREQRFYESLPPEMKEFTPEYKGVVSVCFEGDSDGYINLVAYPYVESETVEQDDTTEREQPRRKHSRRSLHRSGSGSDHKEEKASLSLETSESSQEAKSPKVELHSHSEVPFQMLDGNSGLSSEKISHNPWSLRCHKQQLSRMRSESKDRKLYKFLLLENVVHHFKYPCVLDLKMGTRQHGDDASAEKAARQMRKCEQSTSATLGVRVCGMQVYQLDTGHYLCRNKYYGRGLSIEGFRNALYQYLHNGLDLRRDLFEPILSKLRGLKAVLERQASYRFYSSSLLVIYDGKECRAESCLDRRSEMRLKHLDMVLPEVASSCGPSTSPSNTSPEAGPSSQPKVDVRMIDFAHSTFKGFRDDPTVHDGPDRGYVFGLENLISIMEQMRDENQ

O=c1cc(-c2ccc(O)cc2)oc2cc(O)cc(O)c12 [Apigenin]
Raw Signal [1]: 54339
Z-score [2]: -0.6295

CN1CCc2cccc3c2[C@H]1Cc1ccc(O)c(O)c1-3 [Apomorphine hydrochloride hemihydrate]
Raw Signal [1]: 53248
Z-score [2]: -0.8217

NC(N)=NCCCCN=C(N)N [Arcaine sulfate]
Raw Signal [3]: 57202
Z-score [4]: -0.1252

C#CCOC(=O)C1=CCCN(C)C1 [Arecaidine propargyl ester hydrobromide]
Raw Signal [3]: 56259
Z-score [4]: -0.2913

COC(=O)C1=CCCN(C)C1 [Arecoline hydrobromide]
Raw Signal [3]: 57110
Z-score [4]: -0.1414

CC1=C(/C=C/C(C)=C/C=C/C(C)=C/C=C/C=C(C)/C=C/C=C(C)/C=C/C2=C(C)C(=O)[C@@H](O)CC2(C)C)C(C)(C)C[C@H](O)C1=O [Astaxanthin]
Raw Signal [3]: 57440
Z-score [5]: -0.08333

C[N+]1(C)[C@@H]2CC[C@H]1C[C@@H](OC(=O)C(CO)c1ccccc1)C2 (stereo partly shown) [Atropine methyl bromide]
Raw Signal [1]: 52228
Z-score [2]: -1.0013

C[N+]1(C)[C@@H]2CC[C@H]1C[C@@H](OC(=O)C(CO)c1ccccc1)C2 (stereo partly shown) [Atropine methyl nitrate]
Raw Signal [6]: 60117
Z-score [7]: 0.3882

CN1[C@@H]2CC[C@H]1C[C@@H](OC(=O)C(CO)c1ccccc1)C2 (stereo partly shown) [Atropine sulfate]
Raw Signal [3]: 57358
Z-score [4]: -0.09777

O=C(O)C1=CC(=C(c2ccc(O)c(C(=O)O)c2)c2ccc(O)c(C(=O)O)c2)C=CC1=O [Aurintricarboxylic acid]
Raw Signal [1]: 8090
Z-score [2]: -8.775

Cn1cnc([N+](=O)[O-])c1Sc1ncnc2nc[nH]c12 [Azathioprine]
Raw Signal [1]: 52333
Z-score [2]: -0.9828

O=C(O)CCCCCCCC(=O)O [Azelaic acid]
Raw Signal [6]: 63677
Z-score [7]: 1.015

CCN1CCc2nc(N)oc2CC1.Cl.Cl [B-HT 933 dihydrochloride]
Raw Signal [3]: 56378
Z-score [4]: -0.2704

COc1ccccc1N1CCN(CCN2C(=O)CC3(CCCC3)CC2=O)CC1.Cl.Cl [BMY 7378 dihydrochloride]
Raw Signal [1]: 52642
Z-score [2]: -0.9284

COc1ccccc1N1CCN(CCCCNC(=O)c2ccc3ccccc3c2)CC1 [BP 897]
Raw Signal [6]: 60942
Z-score [7]: 0.5335

OC(CN1CCN(c2cccc(Cl)c2)CC1)C(c1ccccc1)c1ccccc1 (stereo not shown) [BRL 15572]
Raw Signal [3]: 57949
Z-score [5]: 0.006323

C[C@H](Cc1ccc(OCC(=O)[O-])cc1)NC[C@H](O)c1cccc(Cl)c1.[Na+] [BRL 37344 sodium]
Raw Signal [1]: 53982
Z-score [2]: -0.6924

Cl.O=C(Cc1ccc(Cl)c(Cl)c1)N1CCCCC1CN1CCCC1 (stereo not shown) [BRL 52537 hydrochloride]
Raw Signal [3]: 55058
Z-score [4]: -0.1876

CN1CCC(c2c[nH]c3ccc(O)cc23)CC1.O=C(O)/C=C\C(=O)O [BRL 54443 maleate]
Raw Signal [1]: 53701
Z-score [2]: -0.7419

Cl.c1ccc2sc(C3(N4CCCCC4)CCCCC3)cc2c1 [BTCP hydrochloride]
Raw Signal [3]: 55871
Z-score [4]: -0.3597

Cl.c1ccc2nc(C3=NCCN3)ccc2c1 [BU224 hydrochloride]
Raw Signal [6]: 61573
Z-score [7]: 0.6446

S=C=Nc1ccc2oc(C3=NCCN3)cc2c1 [BU99006]
Raw Signal [3]: 56328
Z-score [5]: 0.2358

O=C(O)CCCCCCC1C(=O)NC(=O)N1CCC(O)C1CCCCC1 (stereo not shown) [BW 245C]
Raw Signal [1]: 64569
Z-score [8]: 1.71

C=CC[N+](C)(C)c1ccc(CCC(=O)CCc2ccc([N+](C)(C)CC=C)cc2)cc1.[Br-].[Br-] [BW 284c51]
Raw Signal [3]: 57519
Z-score [5]: -0.06941

CC(N)Cc1c[nH]c2ccc(OCc3cccs3)cc12 (stereo not shown) [BW 723C86]
Raw Signal [1]: 55162
Z-score [2]: -0.4845

CC(/C=C/c1cccc(Oc2ccc(F)cc2)c1)N(O)C(N)=O (stereo not shown) [BWB70C]
Raw Signal [3]: 58720
Z-score [5]: 0.1421

CC(C)(C)c1ccc(S(=O)(=O)/C=C/C#N)cc1 [Bay 11-7085]
Raw Signal [3]: 58167
Z-score [5]: 0.04472

C[C@H]1C[C@H]2[C@@H]3CCC4=CC(=O)C=C[C@]4(C)[C@@]3(Cl)[C@@H](O)C[C@]2(C)[C@@]1(O)C(=O)CO [Beclomethasone]
Raw Signal [3]: 55439
Z-score [4]: -0.4358

c1ccc2cc(-c3ncc[nH]3)ccc2c1 [Benazoline oxalate]
Raw Signal [6]: 61441
Z-score [7]: 0.6214

COc1cccc(OC)c1OCCNCC1CSc2ccccc2O1 (stereo not shown) [Benoxathian hydrochloride]
Raw Signal [3]: 57648
Z-score [5]: -0.04669

NC(CO)C(=O)NNCc1ccc(O)c(O)c1O (stereo not shown) [Benserazide hydrochloride]
Raw Signal [1]: 50551
Z-score [2]: -1.297

NC(=O)c1ccccc1 [Benzamide]
Raw Signal [1]: 54873
Z-score [2]: -0.5354

N=C(N)c1ccccc1 [Benzamidine hydrochloride]
Raw Signal [3]: 57181
Z-score [4]: -0.1289

NC(=NCc1ccccc1)NC(=O)c1nc(Cl)c(N)nc1N [Benzamil hydrochloride]
Raw Signal [3]: 59018
Z-score [5]: 0.1946

CN1[C@@H]2CC[C@H]1C[C@@H](OC(c1ccccc1)c1ccccc1)C2 [Benztropine mesylate]
Raw Signal [6]: 60233
Z-score [7]: 0.4086

CC(C)COCC(CN(Cc1ccccc1)c1ccccc1)N1CCCC1 (stereo not shown) [Bepridil hydrochloride]
Raw Signal [6]: 60020
Z-score [7]: 0.3711

CC(C)C[C@H](NC(=O)[C@@H](O)[C@H](N)Cc1ccccc1)C(=O)O [Bestatin hydrochloride]
Raw Signal [3]: 54023
Z-score [4]: -0.2323

C[N+](C)(C)CC=O [Betaine aldehyde chloride]
Raw Signal [3]: 58689
Z-score [5]: 0.1367

C[N+](C)(C)CC(=O)O [Betaine hydrochloride]
Raw Signal [6]: 62144
Z-score [7]: 0.7452

C[C@H]1C[C@H]2[C@@H]3CCC4=CC(=O)C=C[C@]4(C)[C@@]3(F)[C@@H](O)C[C@]2(C)[C@@]1(O)C(=O)CO [Betamethasone]
Raw Signal [3]: 58863
Z-score [5]: 0.1673

CC(C)NCC(O)COc1ccc(CCOCC2CC2)cc1 (stereo not shown) [Betaxolol hydrochloride]
Raw Signal [3]: 59138
Z-score [5]: 0.2157

CC(C[N+](C)(C)C)OC(N)=O (stereo not shown) [Bethanechol chloride]
Raw Signal [3]: 59240
Z-score [5]: 0.2337

CC[N+](C)(C)Cc1ccccc1Br [Bretylium tosylate]
Raw Signal [3]: 56921
Z-score [4]: -0.1747

C=CCc1ccccc1OCC(O)CNC1(C)CCC(C(C)(C)NC(=O)CBr)CC1 (stereo not shown) [Bromoacetyl alprenolol menthane]
Raw Signal [3]: 55252
Z-score [4]: -0.4687

C[N+](C)(C)CCOC(=O)CBr.[Br-] [Bromoacetylcholine bromide]
Raw Signal [1]: 53767
Z-score [2]: -0.7302

O=C1O/C(=C/Br)CCC1c1cccc2ccccc12 (stereo not shown) [Bromoenol lactone]
Raw Signal [1]: 52508
Z-score [2]: -0.952

CCCC1O[C@@H]2C[C@H]3[C@@H]4CCC5=CC(=O)C=C[C@]5(C)[C@H]4[C@@H](O)C[C@]3(C)[C@]2(C(=O)CO)O1 (stereo partly shown) [Budesonide]
Raw Signal [1]: 54430
Z-score [2]: -0.6135

CCCCNc1cc(C(=O)O)cc(S(N)(=O)=O)c1Oc1ccccc1 [Bumetanide]
Raw Signal [6]: 62300
Z-score [7]: 0.7727

CC(NC(C)(C)C)C(=O)c1cccc(Cl)c1 (stereo not shown) [Bupropion hydrochloride]
Raw Signal [3]: 56700
Z-score [4]: -0.2137

O=C1CC2(CCCC2)CC(=O)N1CCCCN1CCN(c2ncccn2)CC1 [Buspirone hydrochloride]
Raw Signal [6]: 60893
Z-score [7]: 0.5248

CCCN(CCC)C(=O)Cc1c(-c2ccc(Cl)cc2)nc2c(Cl)cc(Cl)cn12 [CB34]
Raw Signal [6]: 60254
Z-score [7]: 0.4123

NC(=O)c1cc(N2CC2)c([N+](=O)[O-])cc1[N+](=O)[O-] [CB 1954]
Raw Signal [3]: 55279
Z-score [4]: -0.4639

CS(=O)(=O)O.Cn1cc(C(F)(F)F)nc1-c1ccc(OCC(O)CNCCOc2ccc(O)c(C(N)=O)c2)cc1 (stereo not shown) [CGP 20712A methanesulfonate]
Raw Signal [6]: 57129
Z-score [7]: 0.3985

CC(C)(CO)Cc1cc(C(C)(C)C)c(O)c(C(C)(C)C)c1 [CGP-7930]
Raw Signal [6]: 64858
Z-score [7]: 1.223

CC(C)(C=O)Cc1cc(C(C)(C)C)c(O)c(C(C)(C)C)c1 [CGP-13501]
Raw Signal [3]: 59120
Z-score [5]: 0.2126

CCn1cnc2c(Nc3cccc(Cl)c3)nc(N[C@@H]3CCCC[C@@H]3N)nc21.Cl [CGP-74514A hydrochloride]
Raw Signal [3]: 58874
Z-score [5]: 0.1692

CN1CCN(c2nc3cc(C(F)(F)F)ccc3n3cccc23)CC1.O=C(O)/C=C\C(=O)O [CGS-12066A maleate]
Raw Signal [6]: 58347
Z-score [7]: 0.6458

Nc1nc2ccc(Cl)cc2c2nc(-c3ccco3)nn12 [CGS-15943]
Raw Signal: 60608
Z-score: 1.105

CCNC(=O)[C@H]1O[C@@H](n2cnc3c(N)nc(NCCc4ccc(CCC(=O)O)cc4)nc32)[C@H](O)[C@@H]1O.Cl [CGS-21680 hydrochloride]
Raw Signal [1]: 62301
Z-score [8]: 1.449

C[C@H](Cc1ccc2c(c1)OC(C(=O)[O-])(C(=O)[O-])O2)NC[C@H](O)c1cccc(Cl)c1.[Na+].[Na+] [CL 316,243]
Raw Signal [3]: 56247
Z-score [4]: -0.2934

N#Cc1cc2nc([O-])c([O-])nc2cc1[N+](=O)[O-].[Na+].[Na+] [CNQX disodium]
Raw Signal [3]: 53180
Z-score [4]: -0.4035

CCc1cccc(N(C)C(N)=Nc2cccc3ccccc23)c1 [CNS-1102]
Raw Signal [6]: 64774
Z-score [7]: 1.208
